Experimental data: US20070027175A1, “Antineoplastic activities of ellipticine and its derivatives” (priority 2005, published 2007)
“Also recorded” adds a separate entry of the source. Read-outs that look alike come from different tables or passages of the source.

Assays:
[1] = tested on: myeloma cell lines ARK, KMS11, RPMI 8226, and U266; experiment: In vitro screening of DTP compounds on myeloma cell lines (CellTiter-Glo); type: cell-based, human; design: effect on myeloma cell growth among tested ellipticine derivatives: dose or concentration left out as unconfirmed
Protocol: Eight myeloma cell lines were contacted with the antineoplastic agents to be tested in ninety six well culture plates. […]
Myeloma cell lines were maintained at >90% viability at 37° C. and 5% CO2. Cells were diluted to 20,000 cells/ml in fresh medium. A 50-μl aliquot of cell suspension was seeded in 96-well tissue culture plates to final cell counts of 1,000 cells/well. All compounds obtained from NCI's Developmental Therapeutics Program (DTP compounds) were dissolved in 100% dimethylsulfoxide (DMSO) (Sigma-Aldrich, St. Louis, Mo.) at 1 mg/ml and further diluted in fresh medium to 1 μg/ml. Each compound (50-μl aliquots) was distributed to a well containing 1,000 myeloma cells. Each plate included controls with addition of only medium or only DMSO (0.5% final concentration). All experiments were conducted in triplicate.
Using CellTiter-Glo Luminescent Assay kit (Promega, Madison, Wis.) according to manufacturer's instructions, cell viability was assayed every 24 hours after addition of DTP compound for 5 days. Briefly, the CellTiter-Glo substrate was dissolved in buffer, and 100 μl was added to each well. […] The statistic sampling distribution for each compound per cell line was based on sample of n=15 measurements.
Other ellipticine derivatives from the DTP (at 0.5 mM final concentration) were used to screen the same four myeloma cell lines.

[2] = NCI in vivo screening data; cited from earlier work
U266 myeloma cell line = tested on: U266 myeloma cell line; design: cell viability (CellTiter-Glo luminescent assay): dose or concentration left out as unconfirmed; conditions: for cell viability (CellTiter-Glo luminescent assay): U266
Protocol: (§1) The dosage of each derivative was set at 2, 0.2 and 0.02 mM. A cell culture medium control and 0.5% DMSO control was maintained in each experiment. The cell viability was tested each day over a period of five days using the CellTiter-Glo luminescent cell viability assay kit from Promega Co.
U266 cell line was one of 12 myeloma cell lines used in screening of anti-myeloma agents. In FIG. 10A, cells were treated with 14 ellipticine derivatives (0.5 mM) obtained from the DTP; control cells were untreated. Ellipticine derivatives are coded with NSC identifiers. For 5 days, cell viability was measured every 24 hours using CellTiter-Glo Luminescent Assay. […] In FIG. 10B, U266 cells, along with six other myeloma cell lines, were co-cultured in direct contact with human fetal bone mesenchymal cells and treated with EPED3 (0.5 mM and 2 mM) or Velcade (0.5 mM); control cells were untreated. Cell proliferation was assessed by MTT assay every 24 hours for 5 days. […] Error bars indicate standard deviation.
(§2) Cell Titer-Glo luminescent cell viability assay kit from Promega Co (Madison, Wis.) was used to determine cell growth inhibition by the various compounds tested. The kit determines cell viability by quantifying the amount of ATP present in the cell culture medium. Presence of ATP signals the presence of metabolically active cells (3). The intensity of luminescence was measured by a computerized luminometer (Promega, Co. Madison, Wis.). Each well was read five times within 30 minutes of adding Cell Titer-Glo reagent mixture.
Cells were contacted with the antineoplastic agents in ninety six well culture plates. The concentration of each neoplastic agent was maintained a constant. A cell culture medium control and 0.5% DMSO control were maintained in each set of experiments. The cell viability was tested every day using the CellTiter-Glo luminescent cell viability kit from Promega Co. (Madison, Wis.) for a period of five days.

[3] = 50 mg/kg; intraperitoneal injection; P388 Leukemia-bearing CD2F1 mice; cited from earlier work
[4] = tested on: non myeloma cancer cell lines HEL, HL-60, k562, MEG01, THP1, Hela, G401, Du145, sw480, sw620, saoS2, MG63; experiment: Overall cell growth inhibition, non myeloma cancer cell lines (CellTiter-Glo); type: cell-based; design: dose or concentration left out as unconfirmed; conditions: 5 days
Protocol: Five non myeloma cancer cell lines, HEL (▮), HL-60 (▴), k562 (X), MEG01 ( ? ) and THP1 (▪) were exposed to NSC 388258 over a period of 5 days. The dose was set at 0.2 mM. […] The results obtained from these controls are pooled together in the figure (●).
Seven non myeloma cancer cell lines, Hela (▮), G401 (▴), Du145 (X), sw480, (*) sw620 (▪), SaoS2 (I) and MG63 (−) were exposed to NSC 388258 over a period of 5 days. The dose was set at 0.2 mM. […] The results obtained from these controls are pooled together in the figure (●).
To test the overall cell growth inhibition of NSC 338258, twelve non myeloma cancer cell lines, HEL, HL-60, k562, MEG01, THP1, Hela, G401, Du145, sw480, sw620, saoS2, and MG63, were exposed to the compound in 96 well cell culture plates for a period of five days.

[5] = tested on: RPMI8226 myeloma cell line; experiment: CellTiter-Glo luminescent cell viability assay, RPMI8226; type: cell-based, human; design: unit of the concentration uncertain
Protocol: as §1
as §2, with “mixture. […]” for “mixture.”

**Q.** Which “inhibition of cell viability in four myeloma cell lines” value ([1]; 0.5 mg/ml, every 24 hours over 5 days) does the source give for Cc1c2ccncc2c(C)c2c1[nH]c1ccc(OCCN(C)C)cc12 [NSC 338258, ellipticine, 9-dimethyl amino-ethoxy-] here?
**A.** Its value is “most significantly inhibited cell viability; also recorded: significant anti-myeloma effect”.

**Q.** What about the “effect on myeloma cell growth among tested ellipticine derivatives” value ([1]; four myeloma cell lines) of the same molecule?
**A.** Its value is “best among the tested ellipticine derivatives”.

**Q.** What about the “effective invitro dosage (cell growth inhibition)” value ([1]; myeloma cell lines) of the same molecule?
**A.** Its value is 0.2 µM.

**Q.** What about the “dosages for animals surviving the toxicity of the compounds” value [2] of the same molecule?
**A.** Its value is 25.0 mg/kg body weight.

**Q.** And the “cytotoxic activity on U266 cells” value (U266 myeloma cell line)?
**A.** The value was “drastic cytotoxic activity”.

**Q.** And the “cell viability (CellTiter-Glo luminescent assay)” value (U266 myeloma cell line; 0.02, Day 1)?
**A.** The value was 26,346.

**Q.** And the “cell viability (CellTiter-Glo luminescent assay)” value (U266 myeloma cell line; 0.02, Day 2)?
**A.** Its value is 37,946.

**Q.** What about the “cell viability (CellTiter-Glo luminescent assay)” value (U266 myeloma cell line; 0.02, Day 3) of the same molecule?
**A.** Its value is 43,097.

**Q.** And the “cell viability (CellTiter-Glo luminescent assay)” value (U266 myeloma cell line; 0.02, Day 4)?
**A.** Its value is 74,106.

**Q.** What about the “cell viability (CellTiter-Glo luminescent assay)” value (U266 myeloma cell line; 0.02, Day 5) of the same molecule?
**A.** Its value is 86,287.

**Q.** And the “cell viability (CellTiter-Glo luminescent assay)” value (U266 myeloma cell line; 0.2, Day 1)?
**A.** The value was 5,906.

**Q.** What about the “cell viability (CellTiter-Glo luminescent assay)” value (U266 myeloma cell line; 0.2, Day 2) of the same molecule?
**A.** The value was 1,414.

**Q.** What about the “cell viability (CellTiter-Glo luminescent assay)” value (U266 myeloma cell line; 0.2, Day 3) of the same molecule?
**A.** The value was 515.

**Q.** What about the “cell viability (CellTiter-Glo luminescent assay)” value (U266 myeloma cell line; 0.2, Day 4) of the same molecule?
**A.** The value was 291.

**Q.** What about the “cell viability (CellTiter-Glo luminescent assay)” value (U266 myeloma cell line; 0.2, Day 5) of the same molecule?
**A.** The value was 101.

**Q.** What about the “cell viability (CellTiter-Glo luminescent assay)” value (U266 myeloma cell line; 2, Day 1) of the same molecule?
**A.** The value was 2,559.

**Q.** And the “cell viability (CellTiter-Glo luminescent assay)” value (U266 myeloma cell line; 2, Day 2)?
**A.** The value was 691.

**Q.** What about the “cell viability (CellTiter-Glo luminescent assay)” value (U266 myeloma cell line; 2, Day 3) of the same molecule?
**A.** The value was 172.

**Q.** What about the “cell viability (CellTiter-Glo luminescent assay)” value (U266 myeloma cell line; 2, Day 4) of the same molecule?
**A.** Its value is 183.

**Q.** What about the “cell viability (CellTiter-Glo luminescent assay)” value (U266 myeloma cell line; 2, Day 5) of the same molecule?
**A.** The value was 104.

**Q.** And the “animals survived EPED3 toxicity for at least 5 days” value [3]?
**A.** Its value is “five out of six”.

**Q.** And the “activity against non-myeloma cell lines” value [4]?
**A.** Its value is “effective against non-myeloma cell lines”.

**Q.** What about the “cell viability (CellTiter-Glo luminescent assay)” value ([5]; 0.02 (unit uncertain), Day 1) of the same molecule?
**A.** Its value is 94,826.

**Q.** What about the “cell viability (CellTiter-Glo luminescent assay)” value ([5]; 0.02 (unit uncertain), Day 2) of the same molecule?
**A.** The value was 180,382.

**Q.** What about the “cell viability (CellTiter-Glo luminescent assay)” value ([5]; 0.02 (unit uncertain), Day 3) of the same molecule?
**A.** Its value is 302,609.

**Q.** And the “cell viability (CellTiter-Glo luminescent assay)” value ([5]; 0.02 (unit uncertain), Day 4)?
**A.** The value was 516,569.

**Q.** What about the “cell viability (CellTiter-Glo luminescent assay)” value ([5]; 0.02 (unit uncertain), Day 5) of the same molecule?
**A.** The value was 777,427.

**Q.** And the “cell viability (CellTiter-Glo luminescent assay)” value ([5]; 0.2 (unit uncertain), Day 1)?
**A.** The value was 3,790.

**Q.** And the “cell viability (CellTiter-Glo luminescent assay)” value ([5]; 0.2 (unit uncertain), Day 2)?
**A.** Its value is 2,320.

**Q.** And the “cell viability (CellTiter-Glo luminescent assay)” value ([5]; 0.2 (unit uncertain), Day 3)?
**A.** Its value is 1,254.

**Q.** And the “cell viability (CellTiter-Glo luminescent assay)” value ([5]; 0.2 (unit uncertain), Day 4)?
**A.** Its value is 1,026.

**Q.** What about the “cell viability (CellTiter-Glo luminescent assay)” value ([5]; 0.2 (unit uncertain), Day 5) of the same molecule?
**A.** The value was 321.

**Q.** What about the “cell viability (CellTiter-Glo luminescent assay)” value ([5]; 2 (unit uncertain), Day 1) of the same molecule?
**A.** The value was 4,685.

**Q.** And the “cell viability (CellTiter-Glo luminescent assay)” value ([5]; 2 (unit uncertain), Day 2)?
**A.** The value was 923.

**Q.** And the “cell viability (CellTiter-Glo luminescent assay)” value ([5]; 2 (unit uncertain), Day 3)?
**A.** The value was 871.

**Q.** And the “cell viability (CellTiter-Glo luminescent assay)” value ([5]; 2 (unit uncertain), Day 4)?
**A.** Its value is 234.

**Q.** And the “cell viability (CellTiter-Glo luminescent assay)” value ([5]; 2 (unit uncertain), Day 5)?
**A.** Its value is 104.
